For one data set, the system named is rat cardiomyocytes. The experiment in a line: Rat cardiomyocyte culture with or without doxorubicin, cell suffering by LDH assay. Format: cell-based. To be noted: 48 hours. How it is done: The effects of 3-(R)-[3-(2-methoxyphenylthio)-2-(S)-methyl-propyl]amino-3,4-dihydro-2H-1,5-benzoxathiepine were assessed in the following cell model: rat cardiomyocytes were placed in culture either in the presence or in the absence of doxorubicin. After 48 hours, cell suffering was quantified by assay of the concentration of lactate dehydrogenase (LDH); LDH is […].

Data set [1] is described as follows: Cytotoxicity of the compound itself (statement, no method).
Data set [2] can be described thus: Effect on normal functioning of the cardiovascular system (earlier work of the inventors). To be noted: even in strong concentrations.

SMILES strings stand for the structures.

For the compound `COc1cccc2c1C(=O)c1c(O)c3c(c(O)c1C2=O)C[C@@](O)(C(=O)CO)C[C@@H]3O[C@H]1C[C@H](N)[C@H](O)[C@H](C)O1` [doxorubicin, reference compound], in the data set with rat cardiomyocytes (doxorubicin at 1 and 10 μM, comparable with Triton X-100), the “Effect on viability of cardiomyocytes (LDH)” value is given as “significantly affects the viability of cardiomyocytes”.

For the compound `COc1ccccc1SC[C@@H](C)CN[C@@H]1COc2ccccc2SC1` [3-(R)-[3-(2-methoxyphenylthio)-2-(S)-methyl-propyl]amino-3,4-dihydro-2H-1,5-benzoxathiepine], the “Effect on the toxic effects of doxorubicin / viability of cardiomyocytes (LDH)” value in the data set on rat cardiomyocytes (compound at 10 μM, with doxorubicin) is “significantly reduces the toxic effects of doxorubicin”. Also, the Cytotoxicity entry in data set [1] is listed as “not cytotoxic”. Further, in data set [2], the “Effect on normal functioning of the cardiovascular system” value was “does not affect the normal functioning of the cardiovascular system”.

The values are drawn from patent US9433603B2, “Use of 3-(R)-[3-(2-methoxyphenylthio)-2-(S)-methylpropyl]amino-3,4-dihydro-2H-1,5-benzoxathiepine for preventing and/or treating cardiotoxic effects caused by chemotherapy and/or radiation” (PIERRE FABRE MEDICAMENT, priority 2011, dated 2016).
